Assay results: the supplement of paper PMC11061612

What was measured:
[1] = system: JVM-3 (B-Cell Non-Hodgkin's Lymphoma); experiment: Bliss excess, mean over the matrix (fraction); higher = more synergy
Summary of the method: (§1)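 Cell lines grown in DMEM/F12 or RPMI with 10% FBS were plated in 1536-well plates and held 24 hours at 37°C, 5% CO2 before 72 hours of exposure to two-drug dose matrices, with DMSO typically at 0.2%. CellTiter-Glo 2.0 luminescence gave viability, which was converted to inhibition. Vehicle wells were set to 0 and blank wells to 1. Combination Emax is the second-highest inhibition in the matrix, and Bliss excess is the observed combination effect minus the expected EA + EB − EA·EB, where EA and EB are the single-agent effects.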

[2] = system: JVM-3 (B-Cell Non-Hodgkin's Lymphoma); experiment: combination Emax (second highest fraction inhibited in the dose matrix, 72 h); higher = more inhibition; extreme values may be limits of the assay
Summary of the method: as §1

[3] = system: PANC-04-03 (Pancreatic Carcinoma); experiment: as above
Summary of the method: as §1

TGW (Neuroblastoma) = experiment: as above
Summary of the method: as §1
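Wherever Bliss excess, mean over the matrix is given: after 72 h of two-drug dosing.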

SMILES | Bliss excess [1] | combination Emax [2] | combination Emax [3] | combination Emax (TGW (Neuroblastoma))
CC1(C)CCC(CN2CCN(c3ccc(C(=O)NS(=O)(=O)c4ccc(NCC5CCOCC5)c([N+](=O)[O-])c4)c(Oc4cnc5[nH]ccc5c4)c3)CC2)=C(c2ccc(Cl)cc2)C1 [Venetoclax] + Cc1cc2ncnn2cc1Nc1ncc2c(n1)n(C1CCOCC1)c(=O)n2C [AZD7648] (first compound max 1 µM, 7x7, partner max 10 µM) | -0.0799 | 0.64 | 0.286 | 0.393
CC1(C)CCC(CN2CCN(c3ccc(C(=O)NS(=O)(=O)c4ccc(NCC5CCOCC5)c([N+](=O)[O-])c4)c(Oc4cnc5[nH]ccc5c4)c3)CC2)=C(c2ccc(Cl)cc2)C1 [Venetoclax] + CN(C)CCCOc1ccc(-c2ccc3ncc4c(c3c2)n(C2CCOCC2)c(=O)n4C)cn1 [AZD0156] (first compound max 1 µM, 7x7, partner max 1 µM) | 0.0085 | 0.673 | 0.18 | 0.32
C=CCn1c(=O)c2cnc(Nc3ccc(N4CCN(C)CC4)cc3)nc2n1-c1cccc(C(C)(C)O)n1 [AZD1775] + C[C@@H]1COCCN1C2=NC(=NC(=C2)C3(CC3)[S@](=N)(=O)C)C4=C5C=CNC5=NC=C4 [AZD6738] (first compound max 1 µM, partner max 10 µM) | -0.0178 | 0.876 | 0.63 | 0.97
Cc1c2c(nn1C)CSCc1cc(n(C)n1)CSc1cc(c3ccccc3c1)OCCCc1c(C(=O)O)n(C)c3c-2c(Cl)ccc13 [AZD5991] + C=CCn1c(=O)c2cnc(Nc3ccc(N4CCN(C)CC4)cc3)nc2n1-c1cccc(C(C)(C)O)n1 [AZD1775] (first compound max 1 µM, partner max 1 µM) | -0.0884 | 0.92 | 0.512 | 0.806
CC1(C)CCC(CN2CCN(c3ccc(C(=O)NS(=O)(=O)c4ccc(NCC5CCOCC5)c([N+](=O)[O-])c4)c(Oc4cnc5[nH]ccc5c4)c3)CC2)=C(c2ccc(Cl)cc2)C1 [Venetoclax] + Cn1cnc2c(F)c(Nc3ccc(Br)cc3Cl)c(C(=O)NOCCO)cc21 [Selumetinib] (first compound max 1 µM, 7x7, partner max 3 µM) | -0.0583 | 0.486 | 0.354 | 0.337
Cc1c2c(nn1C)CSCc1cc(n(C)n1)CSc1cc(c3ccccc3c1)OCCCc1c(C(=O)O)n(C)c3c-2c(Cl)ccc13 [AZD5991] + Cn1cnc2c(F)c(Nc3ccc(Br)cc3Cl)c(C(=O)NOCCO)cc21 [Selumetinib] (first compound max 1 µM, 7x7, partner max 3 µM) | -0.0296 | 0.472 | 0.432 | 0.381
COc1cccc(OCCCN)c1-c1cc(Nc2cnc(C#N)cn2)n[nH]1 [Prexasertib] + CN(C)CCCOc1ccc(-c2ccc3ncc4c(c3c2)n(C2CCOCC2)c(=O)n4C)cn1 [AZD0156] (first compound max 1 µM, 7x7, partner max 1 µM) | -0.0097 | 0.985 | 0.564 | 0.964
NC1(C(=O)N[C@@H](CCO)c2ccc(Cl)cc2)CCN(c2ncnc3[nH]ccc23)CC1 [Capivasertib] + COc1nnc2ccc(N3CCC(c4ccc(OCCN5CCN(C)C(=O)[C@H]5C)cc4)CC3)nn12 [AZD5153] (first compound max 10 µM, 7x7, partner max 1 µM) |  |  | 0.495 | 0.867
COc1nnc2ccc(N3CCC(c4ccc(OCCN5CCN(C)C(=O)[C@H]5C)cc4)CC3)nn12 [AZD5153] + CC1(C)CCC(CN2CCN(c3ccc(C(=O)NS(=O)(=O)c4ccc(NCC5CCOCC5)c([N+](=O)[O-])c4)c(Oc4cnc5[nH]ccc5c4)c3)CC2)=C(c2ccc(Cl)cc2)C1 [Venetoclax] (first compound max 1 µM, 7x7, partner max 1 µM) |  |  | 0.445 | 0.798
C[C@@H]1COCCN1c1cc(C2([S@](C)(=N)=O)CC2)nc(-c2ccnc3[nH]ccc23)n1 [AZD6738] + C1CC(C1)(C(=O)[O-])C(=O)[O-].N.N.[Pt+2] [Carboplatin] (first compound max 10 µM, 7x7, partner max 10 µM) |  |  | 0.455 | 0.574
Cn1cnc2c(F)c(Nc3ccc(Br)cc3Cl)c(C(=O)NOCCO)cc21 [Selumetinib] + C=CCn1c(=O)c2cnc(Nc3ccc(N4CCN(C)CC4)cc3)nc2n1-c1cccc(C(C)(C)O)n1 [AZD1775] (first compound max 10 µM, partner max 1 µM) |  |  | 0.456 | 0.566
C[C@@H](Oc1cc(-c2cnn(C3CCNCC3)c2)cnc1N)c1c(Cl)ccc(F)c1Cl [Crizotinib] + CC1=C(C(=CC=C1)Cl)NC(=O)C2=CN=C(S2)NC3=CC(=NC(=N3)C)N4CCN(CC4)CCO [Dasatinib] (first compound max 10 µM, 7x7, partner max 2 µM) |  |  | 0.529 | 0.677
CN(CCO)CC[C@H](CSc1ccccc1)Nc1ccc(S(=O)(=O)NC(=O)c2ccc(N3CCC([C@@H](O)c4ccccc4-c4ccc(Cl)cc4)CC3)cc2)cc1S(=O)(=O)C(F)(F)F [AZD4320] + CS(=O)(=O)CCNCc1ccc(-c2ccc3ncnc(Nc4ccc(OCc5cccc(F)c5)c(Cl)c4)c3c2)o1 [Lapatinib] (first compound max 1 µM, 7x7, partner max 10 µM) |  |  | 0.313 | 1
CS(=O)(=O)CCNCc1ccc(-c2ccc3ncnc(Nc4ccc(OCc5cccc(F)c5)c(Cl)c4)c3c2)o1 [Lapatinib] + C[C@@H](Oc1cc(-c2cnn(C3CCNCC3)c2)cnc1N)c1c(Cl)ccc(F)c1Cl [Crizotinib] (first compound max 10 µM, 7x7, partner max 10 µM) |  |  | 0.594 | 0.776
CS(=O)(=O)CCNCc1ccc(-c2ccc3ncnc(Nc4ccc(OCc5cccc(F)c5)c(Cl)c4)c3c2)o1 [Lapatinib] + NC1(c2ccc(-c3nc4ccn5c(=O)[nH]nc5c4cc3-c3ccccc3)cc2)CCC1 [MK-2206] (first compound max 10 µM, 7x7, partner max 10 µM) |  |  | 0.505 | 0.422
CC(=O)c1c(C)c2cnc(Nc3ccc(N4CCNCC4)cn3)nc2n(C2CCCC2)c1=O [Palbociclib] + Cn1cnc2c(F)c(Nc3ccc(Br)cc3Cl)c(C(=O)NOCCO)cc21 [Selumetinib] (first compound max 10 µM, 7x7, partner max 10 µM) |  |  | 0.404 | 0.342
Cc1c2c(nn1C)CSCc1cc(n(C)n1)CSc1cc(c3ccccc3c1)OCCCc1c(C(=O)O)n(C)c3c-2c(Cl)ccc13 [AZD5991] + CC(=O)O[C@H]1C(=O)[C@@]2(C)[C@H]([C@H](OC(=O)c3ccccc3)[C@]3(O)C[C@H](OC(=O)[C@H](O)[C@@H](NC(=O)c4ccccc4)c4ccccc4)C(C)=C1C3(C)C)[C@]1(OC(C)=O)CO[C@@H]1C[C@@H]2O [Paclitaxel] (first compound max 1 µM, 7x7, partner max 3 µM) |  |  | 0.52 | 0.955
C=CCn1c(=O)c2cnc(Nc3ccc(N4CCN(C)CC4)cc3)nc2n1-c1cccc(C(C)(C)O)n1 [AZD1775] + CCc1c2c(nc3ccc(O)cc13)-c1cc3c(c(=O)n1C2)COC(=O)[C@]3(O)CC [SN-38] (first compound max 1 µM, partner max 0.3 µM) |  |  | 0.617 | 0.728
Cn1cnc2c(F)c(Nc3ccc(Br)cc3Cl)c(C(=O)NOCCO)cc21 [Selumetinib] + CC(C)n1c(=O)n(C)c2cnc3cc(F)c(-c4ccc(OCCCN5CCCCC5)nc4)cc3c21 [AZD1390] (first compound max 10 µM, 7x7, partner max 0.3 µM) |  |  | 0.418 | 0.0418
C[C@@H](Oc1cc(-c2cnn(C3CCNCC3)c2)cnc1N)c1c(Cl)ccc(F)c1Cl [Crizotinib] + Cn1cnc2c(F)c(Nc3ccc(Br)cc3Cl)c(C(=O)NOCCO)cc21 [Selumetinib] (first compound max 10 µM, 7x7, partner max 10 µM) |  |  | 0.631 | 0.69
